The target of one assay is T1, p70 S6 kinase (S6K1) (Rattus norvegicus, UniProt P67999).
T1 construct: gene Rps6kb1; HA-tagged S6K1 wt immunoprecipitated from HEK293 cells
Description: in vitro […] kinase assay with immunoprecipitated HA-S6K1 and GST-S6 substrate; also KinaseProfiler screen at […]. The assay is classed as biochemical.

For another assay, the target named is T2, Pim-2 (Homo sapiens, UniProt Q9P1W9).
T2 construct: gene PIM2
Description: in vitro kinase screen (Upstate KinaseProfiler), single dose […]. Type of assay: biochemical.

In a further assay the target is CDK2/cyclinA(h) (Homo sapiens, UniProt P24941). Description: biochemical. Details: Upstate KinaseProfiler in vitro kinase activity assay, per cent of DMSO control. As to conditions: read-out: Activity (% of Control). The method, boiled down: (§1)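 Profiling done with Upstate KinaseProfiler service across 100 kinases, resveratrol tested at 20 μM; activity expressed relative to control.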

A further assay deals with T3, GSK3ß(h) (Homo sapiens, UniProt P49841).
T3 construct: gene GSK3B
T3 sequence (P49841 whole entry): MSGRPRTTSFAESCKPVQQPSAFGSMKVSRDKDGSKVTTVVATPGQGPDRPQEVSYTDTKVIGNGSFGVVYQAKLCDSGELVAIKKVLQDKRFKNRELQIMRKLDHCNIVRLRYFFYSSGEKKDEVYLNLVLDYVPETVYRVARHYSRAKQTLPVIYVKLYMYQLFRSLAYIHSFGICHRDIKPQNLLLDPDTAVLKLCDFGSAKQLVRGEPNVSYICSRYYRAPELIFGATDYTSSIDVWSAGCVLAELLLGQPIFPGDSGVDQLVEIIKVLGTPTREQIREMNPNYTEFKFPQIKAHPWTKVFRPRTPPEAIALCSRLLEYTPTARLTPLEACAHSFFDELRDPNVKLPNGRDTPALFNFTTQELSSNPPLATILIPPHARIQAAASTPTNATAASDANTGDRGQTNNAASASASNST
Description: biochemical. Details: Upstate KinaseProfiler in vitro kinase activity assay, per cent of DMSO control. As to conditions: read-out: Activity (% of Control). The gist of the method:
as §1

The next assay deals with T4, PKBß(h) (Homo sapiens, UniProt P31751).
T4 construct: gene AKT2
T4 sequence (P31751 whole entry): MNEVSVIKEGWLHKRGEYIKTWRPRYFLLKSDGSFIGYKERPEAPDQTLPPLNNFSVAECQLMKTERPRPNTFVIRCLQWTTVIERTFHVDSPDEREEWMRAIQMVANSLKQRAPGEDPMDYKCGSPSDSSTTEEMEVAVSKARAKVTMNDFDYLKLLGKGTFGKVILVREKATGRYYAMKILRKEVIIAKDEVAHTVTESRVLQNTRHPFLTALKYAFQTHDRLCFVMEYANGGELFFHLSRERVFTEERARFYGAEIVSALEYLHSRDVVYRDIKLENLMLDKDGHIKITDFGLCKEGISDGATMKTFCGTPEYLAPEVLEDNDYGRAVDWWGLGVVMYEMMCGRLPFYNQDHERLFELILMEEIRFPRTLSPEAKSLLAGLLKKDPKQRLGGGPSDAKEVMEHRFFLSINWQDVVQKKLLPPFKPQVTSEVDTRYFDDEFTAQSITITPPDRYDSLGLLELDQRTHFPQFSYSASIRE
Briefly: biochemical. The note with it: read-out: Activity (% of Control). Details: Upstate KinaseProfiler in vitro kinase activity assay, per cent of DMSO control. The gist of the method: as §1

Another assay has as its target T5, IKKα(h) (Homo sapiens, UniProt O15111).
T5 construct: gene CHUK
Briefly: biochemical. Also noted: Upstate KinaseProfiler in vitro kinase activity assay, per cent of DMSO control. The note with it: read-out: Activity (% of Control). The method, boiled down: as §1

The next assay concerns the target T6, SIK(h) (Homo sapiens, UniProt P57059).
T6 construct: gene SIK1
Description: biochemical. Also noted: Upstate KinaseProfiler in vitro kinase activity assay, per cent of DMSO control. The note with it: read-out: Activity (% of Control). The gist of the method:
as §1

A further assay concerns the target T7, PI 3-Kinaseδ(h) (Homo sapiens, UniProt O00329).
T7 construct: gene PIK3CD
Briefly: biochemical. Details: Upstate KinaseProfiler in vitro kinase activity assay, per cent of DMSO control. As to conditions: read-out: Activity (% of Control). The method, boiled down:
as §1

The next assay concerns the target T8, CHK1(h) (Homo sapiens, UniProt O14757).
T8 construct: gene CHEK1
Description: biochemical. Also noted: Upstate KinaseProfiler in vitro kinase activity assay, per cent of DMSO control. As to conditions: read-out: Activity (% of Control). The method, boiled down: as §1

Another assay deals with T9, Snk(h) (Homo sapiens, UniProt Q9NYY3).
T9 construct: gene PLK2
Description: biochemical. Also noted: Upstate KinaseProfiler in vitro kinase activity assay, per cent of DMSO control. As to conditions: read-out: Activity (% of Control). The method, boiled down:
as §1

T8 sequence (O14757 whole entry): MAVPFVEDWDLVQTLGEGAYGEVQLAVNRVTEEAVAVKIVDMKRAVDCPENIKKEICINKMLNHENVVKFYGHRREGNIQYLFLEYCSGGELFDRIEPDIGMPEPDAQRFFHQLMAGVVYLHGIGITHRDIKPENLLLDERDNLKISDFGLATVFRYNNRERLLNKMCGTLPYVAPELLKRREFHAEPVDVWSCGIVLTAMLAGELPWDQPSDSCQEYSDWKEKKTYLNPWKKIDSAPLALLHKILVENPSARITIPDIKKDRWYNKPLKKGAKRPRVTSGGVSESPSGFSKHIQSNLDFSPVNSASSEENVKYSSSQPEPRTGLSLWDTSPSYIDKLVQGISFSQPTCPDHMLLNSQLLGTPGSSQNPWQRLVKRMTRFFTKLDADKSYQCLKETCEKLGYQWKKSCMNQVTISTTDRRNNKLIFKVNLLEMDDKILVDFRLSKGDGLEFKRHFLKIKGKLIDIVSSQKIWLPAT
T6 sequence (P57059 whole entry): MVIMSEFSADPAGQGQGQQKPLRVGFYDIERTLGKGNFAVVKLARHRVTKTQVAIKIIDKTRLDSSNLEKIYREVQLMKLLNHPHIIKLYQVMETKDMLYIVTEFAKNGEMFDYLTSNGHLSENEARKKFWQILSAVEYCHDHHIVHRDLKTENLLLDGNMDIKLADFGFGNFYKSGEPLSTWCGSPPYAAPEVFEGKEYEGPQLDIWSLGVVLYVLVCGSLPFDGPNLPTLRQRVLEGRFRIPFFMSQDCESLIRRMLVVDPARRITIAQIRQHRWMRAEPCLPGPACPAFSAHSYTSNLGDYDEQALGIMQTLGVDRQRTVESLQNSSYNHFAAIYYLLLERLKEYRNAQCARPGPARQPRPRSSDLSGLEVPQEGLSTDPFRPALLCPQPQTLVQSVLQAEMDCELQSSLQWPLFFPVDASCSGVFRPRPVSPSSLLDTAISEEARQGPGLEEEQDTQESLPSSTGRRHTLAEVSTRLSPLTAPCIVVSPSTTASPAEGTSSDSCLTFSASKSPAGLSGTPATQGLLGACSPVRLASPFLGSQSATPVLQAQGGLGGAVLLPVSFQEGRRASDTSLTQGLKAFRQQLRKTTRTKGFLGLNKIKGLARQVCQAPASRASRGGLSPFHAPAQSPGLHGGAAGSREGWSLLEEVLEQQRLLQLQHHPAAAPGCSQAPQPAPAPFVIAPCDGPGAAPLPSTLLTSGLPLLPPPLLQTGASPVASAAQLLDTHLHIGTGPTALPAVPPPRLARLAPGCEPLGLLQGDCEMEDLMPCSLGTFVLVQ
T7 sequence (O00329 whole entry): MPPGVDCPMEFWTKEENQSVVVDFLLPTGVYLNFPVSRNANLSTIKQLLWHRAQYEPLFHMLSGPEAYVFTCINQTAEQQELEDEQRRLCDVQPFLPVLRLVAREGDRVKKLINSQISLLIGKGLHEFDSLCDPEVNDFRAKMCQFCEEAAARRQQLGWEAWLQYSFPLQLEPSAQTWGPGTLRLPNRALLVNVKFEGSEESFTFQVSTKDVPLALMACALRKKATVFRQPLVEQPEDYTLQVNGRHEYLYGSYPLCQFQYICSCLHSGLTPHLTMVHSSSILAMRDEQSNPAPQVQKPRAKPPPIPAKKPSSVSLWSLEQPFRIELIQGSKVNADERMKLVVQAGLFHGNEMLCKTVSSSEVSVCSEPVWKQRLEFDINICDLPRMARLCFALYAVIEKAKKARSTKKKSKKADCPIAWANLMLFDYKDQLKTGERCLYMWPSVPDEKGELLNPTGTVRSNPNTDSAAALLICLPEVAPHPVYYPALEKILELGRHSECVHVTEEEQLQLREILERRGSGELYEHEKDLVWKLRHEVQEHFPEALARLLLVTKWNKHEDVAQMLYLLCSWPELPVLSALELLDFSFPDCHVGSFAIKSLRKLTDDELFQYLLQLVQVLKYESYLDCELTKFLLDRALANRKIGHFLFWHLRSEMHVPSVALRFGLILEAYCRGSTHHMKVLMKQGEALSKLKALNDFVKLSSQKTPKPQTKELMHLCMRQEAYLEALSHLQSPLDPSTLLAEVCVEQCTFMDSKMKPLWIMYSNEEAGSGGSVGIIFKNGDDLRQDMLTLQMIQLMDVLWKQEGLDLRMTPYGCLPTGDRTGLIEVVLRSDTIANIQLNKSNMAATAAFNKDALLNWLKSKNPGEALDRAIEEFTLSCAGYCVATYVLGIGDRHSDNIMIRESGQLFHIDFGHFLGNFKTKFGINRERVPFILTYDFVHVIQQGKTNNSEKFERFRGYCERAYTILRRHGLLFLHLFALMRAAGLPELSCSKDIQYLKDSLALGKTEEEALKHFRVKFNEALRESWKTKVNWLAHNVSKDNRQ
T7 sequence (P27986 whole entry partner): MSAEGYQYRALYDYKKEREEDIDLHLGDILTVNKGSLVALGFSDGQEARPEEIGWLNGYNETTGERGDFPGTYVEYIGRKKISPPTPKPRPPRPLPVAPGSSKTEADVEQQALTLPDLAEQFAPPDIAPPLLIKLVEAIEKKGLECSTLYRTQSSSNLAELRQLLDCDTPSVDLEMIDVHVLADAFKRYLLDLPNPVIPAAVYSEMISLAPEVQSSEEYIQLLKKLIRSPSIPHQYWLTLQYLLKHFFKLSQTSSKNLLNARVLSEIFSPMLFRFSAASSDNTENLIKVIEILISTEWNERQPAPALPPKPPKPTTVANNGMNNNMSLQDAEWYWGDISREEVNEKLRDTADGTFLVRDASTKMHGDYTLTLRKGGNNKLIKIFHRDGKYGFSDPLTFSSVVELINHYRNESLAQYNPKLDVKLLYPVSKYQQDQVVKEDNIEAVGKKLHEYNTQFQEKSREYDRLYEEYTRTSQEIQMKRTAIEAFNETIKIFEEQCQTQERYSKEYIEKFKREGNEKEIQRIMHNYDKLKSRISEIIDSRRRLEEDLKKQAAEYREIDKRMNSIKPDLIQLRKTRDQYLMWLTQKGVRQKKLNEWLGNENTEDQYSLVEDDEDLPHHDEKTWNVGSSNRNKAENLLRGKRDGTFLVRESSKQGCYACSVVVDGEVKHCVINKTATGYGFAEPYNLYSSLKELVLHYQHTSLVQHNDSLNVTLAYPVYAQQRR
T2 sequence (Q9P1W9 whole entry): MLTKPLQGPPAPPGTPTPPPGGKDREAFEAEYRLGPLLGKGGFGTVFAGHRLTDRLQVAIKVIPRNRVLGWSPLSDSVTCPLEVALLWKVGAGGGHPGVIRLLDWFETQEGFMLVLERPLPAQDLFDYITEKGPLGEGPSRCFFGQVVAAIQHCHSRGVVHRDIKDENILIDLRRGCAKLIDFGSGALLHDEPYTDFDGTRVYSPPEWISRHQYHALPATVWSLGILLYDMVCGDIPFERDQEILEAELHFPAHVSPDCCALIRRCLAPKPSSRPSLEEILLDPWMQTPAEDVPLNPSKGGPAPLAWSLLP
T5 sequence (O15111 whole entry): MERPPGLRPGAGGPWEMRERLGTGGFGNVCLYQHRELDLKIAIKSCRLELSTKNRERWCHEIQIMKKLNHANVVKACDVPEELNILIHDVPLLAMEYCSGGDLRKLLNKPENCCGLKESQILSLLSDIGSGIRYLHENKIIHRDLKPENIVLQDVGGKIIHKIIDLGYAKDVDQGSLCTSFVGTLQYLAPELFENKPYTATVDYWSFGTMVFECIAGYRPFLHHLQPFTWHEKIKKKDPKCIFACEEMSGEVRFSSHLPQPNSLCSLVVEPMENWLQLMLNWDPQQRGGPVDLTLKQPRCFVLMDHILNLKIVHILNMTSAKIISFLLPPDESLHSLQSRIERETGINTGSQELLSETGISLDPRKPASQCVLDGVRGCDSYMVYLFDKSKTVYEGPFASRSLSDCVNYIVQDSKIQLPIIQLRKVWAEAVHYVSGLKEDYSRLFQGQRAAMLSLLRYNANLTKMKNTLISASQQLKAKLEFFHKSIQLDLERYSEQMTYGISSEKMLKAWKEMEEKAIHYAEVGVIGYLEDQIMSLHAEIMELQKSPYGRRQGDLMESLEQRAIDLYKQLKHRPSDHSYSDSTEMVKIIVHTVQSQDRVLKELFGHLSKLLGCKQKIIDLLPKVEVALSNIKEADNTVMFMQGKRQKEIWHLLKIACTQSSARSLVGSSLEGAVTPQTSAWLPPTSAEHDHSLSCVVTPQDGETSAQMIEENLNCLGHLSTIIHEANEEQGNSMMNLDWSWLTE

The term IC50 denotes the concentration needed to halve the response being measured. Read a low IC50 as inhibition by little substance. On to `Oc1ccc(/C=C/c2cc(O)cc(O)c2)cc1` [Res, resveratrol], for which the half-maximal inhibitory concentration (IC50) at p70 S6 kinase (S6K1) is around 25 µM. Moreover, the “in vitro kinase screen (Upstate KinaseProfiler), single dose 20 μM” value at Pim-2 is “Jak2, NLK, p70 S6 kinase (S6K1), Pim-1, and Pim-2 emerged as potential targets of resveratrol”. In addition, the remaining activity at 20 µM at CDK2/cyclinA(h) was 80 ± 1%; on GSK3ß(h), 92%; on PKBß(h) it was 105 ± 3%; at IKKα(h) it was 40 ± 1%; at SIK(h) it was 76 ± 1%; on PI 3-Kinaseδ(h) it was 106 ± 1%. Also, the values for the remaining activity at 20 µM at CHK1(h) and at Snk(h) were 95 ± 2% and 81 ± 3%, respectively.

For the origin of these results see article PMC2806030, “Inhibition of mammalian S6 kinase by resveratrol suppresses autophagy” (Aging (Albany NY), 2009).
